# Paper PMC7368294 (Proceedings of the National Academy of Sciences of the …, 2020)
# Read-outs that look alike come from different tables or passages of the source.
# What was measured:
# Assay in all cases: cell-based
# Parameters in all cases: species or system Xenopus laevis oocytes
# Settings in all cases: Oocyte
# [1] = target: Amα1/Amα2/Amα8/Amβ1 nAChR (Apis mellifera, UniProt A0A7M7MMZ9+A0A8U0WQ70+A0A8U0WQC0+A0A8U0WQD1)
# [2] = target: Dα1/Dα2/Dβ1/Dβ2 nAChR (Drosophila melanogaster, UniProt P04755+P09478+P17644+P25162)
# [3] = target: T1, Dα1/Dβ1 nAChR (Drosophila melanogaster, UniProt P04755+P09478)
# T1 sequence (P09478 22-567): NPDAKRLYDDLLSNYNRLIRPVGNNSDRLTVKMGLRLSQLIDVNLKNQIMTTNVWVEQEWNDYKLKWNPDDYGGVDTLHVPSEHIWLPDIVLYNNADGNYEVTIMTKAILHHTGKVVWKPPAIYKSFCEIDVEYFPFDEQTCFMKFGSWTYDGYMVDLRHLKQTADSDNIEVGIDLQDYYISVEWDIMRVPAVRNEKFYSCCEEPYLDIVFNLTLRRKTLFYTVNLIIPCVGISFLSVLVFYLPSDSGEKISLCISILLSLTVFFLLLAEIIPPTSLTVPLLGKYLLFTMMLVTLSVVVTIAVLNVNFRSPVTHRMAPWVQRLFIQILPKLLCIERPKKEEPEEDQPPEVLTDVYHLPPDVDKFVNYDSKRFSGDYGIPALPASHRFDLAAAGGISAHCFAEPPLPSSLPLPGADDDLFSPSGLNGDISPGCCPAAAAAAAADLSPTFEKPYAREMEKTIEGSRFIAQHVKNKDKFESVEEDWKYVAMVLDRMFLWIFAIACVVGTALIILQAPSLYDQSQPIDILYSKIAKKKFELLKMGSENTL
# T1 sequence (P04755 25-521): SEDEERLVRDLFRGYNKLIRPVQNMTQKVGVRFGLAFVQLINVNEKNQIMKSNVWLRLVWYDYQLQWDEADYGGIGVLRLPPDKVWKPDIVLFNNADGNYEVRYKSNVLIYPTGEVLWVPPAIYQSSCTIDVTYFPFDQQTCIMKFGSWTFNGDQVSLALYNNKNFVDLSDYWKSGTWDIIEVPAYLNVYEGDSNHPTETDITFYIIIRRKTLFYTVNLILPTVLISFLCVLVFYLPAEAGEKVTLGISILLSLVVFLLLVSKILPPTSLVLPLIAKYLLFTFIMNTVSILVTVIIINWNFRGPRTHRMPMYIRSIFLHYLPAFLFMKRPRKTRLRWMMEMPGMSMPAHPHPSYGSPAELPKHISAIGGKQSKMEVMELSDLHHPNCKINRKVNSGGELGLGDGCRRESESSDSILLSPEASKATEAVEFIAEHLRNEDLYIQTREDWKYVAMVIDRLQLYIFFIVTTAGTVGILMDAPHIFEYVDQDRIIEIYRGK
# [4] = target: Btα1/Btα2/Btα8/Btβ1 nAChR (Bombus terrestris, UniProt A0A9B0BGM1+A0A9B0F4H3+A0A9B2JDZ7+A0A9B2JMX7)
# [5] = target: T2, Btα1/Btα8/Btβ1 nAChR (Bombus terrestris, UniProt A0A9B0BGM1+A0A9B0F4H3+A0A9B2JDZ7)
# T2 sequence (A0A9B0F4H3 44-615): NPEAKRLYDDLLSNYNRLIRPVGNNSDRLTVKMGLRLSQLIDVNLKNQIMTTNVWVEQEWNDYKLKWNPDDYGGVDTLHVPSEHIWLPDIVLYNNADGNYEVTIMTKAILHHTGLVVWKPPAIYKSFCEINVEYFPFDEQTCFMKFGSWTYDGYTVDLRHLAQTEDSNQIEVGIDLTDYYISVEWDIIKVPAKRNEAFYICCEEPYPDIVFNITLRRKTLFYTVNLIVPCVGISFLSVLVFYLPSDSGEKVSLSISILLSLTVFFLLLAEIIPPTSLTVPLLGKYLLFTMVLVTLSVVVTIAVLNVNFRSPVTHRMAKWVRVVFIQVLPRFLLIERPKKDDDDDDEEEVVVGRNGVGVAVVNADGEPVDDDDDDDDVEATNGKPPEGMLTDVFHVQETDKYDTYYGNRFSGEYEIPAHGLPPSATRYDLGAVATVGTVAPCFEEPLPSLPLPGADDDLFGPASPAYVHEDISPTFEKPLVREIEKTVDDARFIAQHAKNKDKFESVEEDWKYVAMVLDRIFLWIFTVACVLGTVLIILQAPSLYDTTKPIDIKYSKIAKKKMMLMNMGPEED
# T2 sequence (A0A9B2JDZ7 22-535): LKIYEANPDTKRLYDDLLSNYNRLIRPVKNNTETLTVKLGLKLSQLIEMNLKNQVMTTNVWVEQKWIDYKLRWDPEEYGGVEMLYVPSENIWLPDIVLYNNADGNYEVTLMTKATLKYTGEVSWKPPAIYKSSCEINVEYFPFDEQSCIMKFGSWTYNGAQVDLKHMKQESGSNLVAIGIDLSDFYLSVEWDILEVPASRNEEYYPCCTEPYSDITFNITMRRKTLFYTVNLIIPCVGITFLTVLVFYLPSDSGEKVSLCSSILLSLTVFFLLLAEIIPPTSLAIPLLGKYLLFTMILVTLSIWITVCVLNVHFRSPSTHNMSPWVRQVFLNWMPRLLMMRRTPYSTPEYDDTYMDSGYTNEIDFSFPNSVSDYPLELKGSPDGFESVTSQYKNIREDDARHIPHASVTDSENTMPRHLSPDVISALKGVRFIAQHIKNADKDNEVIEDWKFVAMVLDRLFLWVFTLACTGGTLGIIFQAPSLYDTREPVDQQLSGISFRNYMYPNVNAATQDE
# T2 sequence (A0A9B0BGM1 19-519): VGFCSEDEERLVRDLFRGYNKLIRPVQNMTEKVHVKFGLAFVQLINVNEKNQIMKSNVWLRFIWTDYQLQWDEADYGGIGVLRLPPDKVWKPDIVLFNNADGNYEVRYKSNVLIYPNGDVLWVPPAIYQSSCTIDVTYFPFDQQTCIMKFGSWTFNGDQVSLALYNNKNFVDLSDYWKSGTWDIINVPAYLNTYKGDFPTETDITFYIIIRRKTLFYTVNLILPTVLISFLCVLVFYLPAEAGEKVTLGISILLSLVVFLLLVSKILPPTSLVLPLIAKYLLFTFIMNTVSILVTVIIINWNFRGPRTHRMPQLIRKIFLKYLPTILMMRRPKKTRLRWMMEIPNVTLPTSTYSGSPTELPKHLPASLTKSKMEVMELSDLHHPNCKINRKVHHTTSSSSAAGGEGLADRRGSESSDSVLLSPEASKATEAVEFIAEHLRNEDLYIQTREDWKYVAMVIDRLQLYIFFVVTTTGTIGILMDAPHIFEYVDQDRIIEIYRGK
smiles,measurement,setting,value
CN/C(=N\[N+](=O)[O-])NCc1cnc(Cl)s1 [clothianidin],Emax,[1]; read-out: Clothianidin / Imax,76.6 ± 2.4%
same,Emax,[2]; read-out: Clothianidin / Imax / ND,82.1 ± 1.7%
same,Emax,[3]; read-out: Clothianidin / Imax,29.6 ± 1.3%
same,Emax,[4]; read-out: Clothianidin / Imax,68 ± 2.9%
same,Emax,[5]; read-out: Clothianidin / Imax,75.9 ± 1.8%
N#C/N=C1\SCCN1Cc1ccc(Cl)nc1 [thiacloprid],Emax,[1]; read-out: Thiacloprid / Imax,3.7 ± 0.3%
same,Emax,[2]; read-out: Thiacloprid / Imax,45.4 ± 1.9%
same,Emax,[3]; read-out: Thiacloprid / Imax,6.5 ± 0.5%
same,Emax,[4]; read-out: Thiacloprid / Imax,9.2 ± 1.1%
same,Emax,[5]; read-out: Thiacloprid / Imax,9.4 ± 0.8%
O=[N+]([O-])NC1=NCCN1Cc1ccc(Cl)nc1 [imidacloprid],Emax,[1]; read-out: Imidacloprid / Imax,7 ± 0.5%
same,Emax,[2]; read-out: Imidacloprid / Imax,59.2 ± 3%
same,Emax,[3]; read-out: Imidacloprid / Imax,11.2 ± 0.9%
same,Emax,[4]; read-out: Imidacloprid / Imax,8.5 ± 0.7%
same,Emax,[5]; read-out: Imidacloprid / Imax,10.7 ± 1%
